Results reported in ChEMBL document CHEMBL5724914, “Linking interpersonal differences in gut microbiota composition and drug biotransformation activity” (2024).

Assays:
[1] = (§1) The drug is tested on Z-025 corresponding to rabbit gut metagenome with ENA study accession number: PRJEB37062 and ENA sample accession number: ERS12561824 for biotransformation under anaerobic condition. The drug concentrations were measured over 9 timepoints collected between 0 and 24 hours of incubation by liquid-chromatography-coupled mass spectrometry (LC–MS); conditions: 2 µM
[2] = as §1, with “Z-028” for “Z-025”, “mouse” for “rabbit”, “ERS12561827” for “ERS12561824”; conditions: 2 µM
[3] = human gut metagenome, 24 h, 2 µM
[4] = human gut metagenome, 24 h, 2 µM; remark: listed apart in the source
[5] = as §1, with “WLS-038” for “Z-025”, “human” for “rabbit”, “ERS12561745” for “ERS12561824”; conditions: 2 µM
[6] = human gut metagenome, 24 h, 2 µM; remark: listed apart in the source
[7] = as §1, with “Z-022” for “Z-025”, “mouse” for “rabbit”, “ERS12561821” for “ERS12561824”; conditions: 2 µM
[8] = as §1, with “Z-011” for “Z-025”, “mouse” for “rabbit”, “ERS12561811” for “ERS12561824”; conditions: 2 µM
[9] = human gut metagenome, 24 h, 2 µM; remark: listed apart in the source
[10] = as §1, with “WLS-240” for “Z-025”, “human” for “rabbit”, “ERS12561773” for “ERS12561824”; conditions: 2 µM
[11] = as §1, with “Z-013” for “Z-025”, “ERS12561813” for “ERS12561824”; conditions: 2 µM
[12] = as §1, with “Z-006” for “Z-025”, “mouse” for “rabbit”, “ERS12561806” for “ERS12561824”; conditions: 2 µM
[13] = human gut metagenome, 24 h, 2 µM; remark: listed apart in the source
[14] = human gut metagenome, 24 h, 2 µM; remark: listed apart in the source
[15] = as §1, with “WLS-086” for “Z-025”, “human” for “rabbit”, “ERS12561752” for “ERS12561824”; conditions: 2 µM
[16] = as §1, with “Z-004” for “Z-025”, “to” for “to rabbit gut”, “ERS12561804” for “ERS12561824”; conditions: 2 µM
[17] = as §1, with “WLS-310” for “Z-025”, “human” for “rabbit”, “ERS12561785” for “ERS12561824”; conditions: 2 µM
[18] = as §1, with “Z-012” for “Z-025”, “to” for “to rabbit gut”, “ERS12561812” for “ERS12561824”; conditions: 2 µM
[19] = human gut metagenome, 24 h, 2 µM; remark: listed apart in the source
[20] = as §1, with “Z-017” for “Z-025”, “mouse” for “rabbit”, “ERS12561816” for “ERS12561824”; conditions: 2 µM
Note: call rule not given here.

| Structure (SMILES) | Bacterial Biotransformation [1] | Bacterial Biotransformation [2] | Bacterial Biotransformation [3] | Bacterial Biotransformation [4] | Bacterial Biotransformation [5] | Bacterial Biotransformation [6] | Bacterial Biotransformation [7] | Bacterial Biotransformation [8] | Bacterial Biotransformation [9] | Bacterial Biotransformation [10] | Bacterial Biotransformation [11] | Bacterial Biotransformation [12] | Bacterial Biotransformation [13] | Bacterial Biotransformation [14] | Bacterial Biotransformation [15] | Bacterial Biotransformation [16] | Bacterial Biotransformation [17] | Bacterial Biotransformation [18] | Bacterial Biotransformation [19] | Bacterial Biotransformation [20] |
| --- | --- | --- | --- | --- | --- | --- | --- | --- | --- | --- | --- | --- | --- | --- | --- | --- | --- | --- | --- | --- |
| CCN(CC)CCOC(=O)C1(C2CCCCC2)CCCCC1 [DICYCLOMINE] | Compound NOT metabolized | Compound NOT metabolized | Compound metabolized | Compound metabolized | Compound NOT metabolized | Compound metabolized | Compound metabolized | Compound NOT metabolized | Compound metabolized | Compound NOT metabolized | Compound NOT metabolized | Compound NOT metabolized | Compound NOT metabolized | Compound NOT metabolized | Compound metabolized | Compound NOT metabolized | Compound metabolized | Compound metabolized | Compound metabolized | Compound NOT metabolized |
| CC(C)(C)NC[C@H](O)COc1nsnc1N1CCOCC1.O=C(O)/C=C\C(=O)O [TIMOLOL MALEATE] | Compound NOT metabolized | Compound NOT metabolized | Compound NOT metabolized | Compound NOT metabolized | Compound NOT metabolized | Compound NOT metabolized | Compound NOT metabolized | Compound NOT metabolized | Compound NOT metabolized | Compound NOT metabolized | Compound NOT metabolized | Compound NOT metabolized | Compound NOT metabolized | Compound NOT metabolized | Compound NOT metabolized | Compound NOT metabolized | Compound NOT metabolized | Compound NOT metabolized | Compound NOT metabolized | Compound NOT metabolized |
| CC[C@@]1(O)C(=O)OCc2c1cc1n(c2=O)Cc2cc3c(CN(C)C)c(O)ccc3nc2-1 [TOPOTECAN] | Compound NOT metabolized | Compound NOT metabolized | Compound NOT metabolized | Compound NOT metabolized | Compound NOT metabolized | Compound NOT metabolized | Compound NOT metabolized | Compound NOT metabolized | Compound NOT metabolized | Compound NOT metabolized | Compound NOT metabolized | Compound NOT metabolized | Compound NOT metabolized | Compound NOT metabolized | Compound NOT metabolized | Compound NOT metabolized | Compound NOT metabolized | Compound NOT metabolized | Compound NOT metabolized | Compound NOT metabolized |
| CC(C)(C)NCC(O)COc1cccc2c1CC(O)C(O)C2 (stereo not given) [NADOLOL] | Compound NOT metabolized | Compound NOT metabolized | Compound NOT metabolized | Compound NOT metabolized | Compound NOT metabolized | Compound metabolized | Compound metabolized | Compound metabolized | Compound NOT metabolized | Compound metabolized | Compound NOT metabolized | Compound NOT metabolized | Compound NOT metabolized | Compound NOT metabolized | Compound metabolized | Compound NOT metabolized | Compound metabolized | Compound NOT metabolized | Compound NOT metabolized | Compound NOT metabolized |
| CN(C)C(=O)Oc1cc(OC(=O)N(C)C)cc(C(O)CNC(C)(C)C)c1 (stereo not given) [BAMBUTEROL] | Compound metabolized | Compound NOT metabolized | Compound metabolized | Compound metabolized | Compound NOT metabolized | Compound metabolized | Compound metabolized | Compound NOT metabolized | Compound NOT metabolized | Compound metabolized | Compound NOT metabolized | Compound NOT metabolized | Compound NOT metabolized | Compound NOT metabolized | Compound metabolized | Compound metabolized | Compound metabolized | Compound NOT metabolized | Compound metabolized | Compound NOT metabolized |
| CC(NC(C)(C)C)C(=O)c1cccc(Cl)c1 (stereo not given) [BUPROPION] | Compound NOT metabolized | Compound NOT metabolized | Compound NOT metabolized | Compound NOT metabolized | Compound NOT metabolized | Compound NOT metabolized | Compound NOT metabolized | Compound NOT metabolized | Compound metabolized | Compound NOT metabolized | Compound metabolized | Compound NOT metabolized | Compound NOT metabolized | Compound NOT metabolized | Compound NOT metabolized | Compound NOT metabolized | Compound NOT metabolized | Compound NOT metabolized | Compound NOT metabolized | Compound NOT metabolized |
| CC(C)(C)N.CCC[C@H](N[C@@H](C)C(=O)N1[C@H](C(=O)O)C[C@@H]2CCCC[C@@H]21)C(=O)OCC [PERINDOPRIL ERBUMINE] | Compound NOT metabolized | Compound NOT metabolized | Compound metabolized | Compound metabolized | Compound NOT metabolized | Compound metabolized | Compound metabolized | Compound NOT metabolized | Compound metabolized | Compound metabolized | Compound NOT metabolized | Compound NOT metabolized | Compound metabolized | Compound metabolized | Compound metabolized | Compound metabolized | Compound metabolized | Compound metabolized | Compound NOT metabolized | Compound NOT metabolized |
| CC#C[C@]1(O)CC[C@H]2[C@@H]3CCC4=CC(=O)CCC4=C3[C@@H](c3ccc(N(C)C)cc3)C[C@@]21C [MIFEPRISTONE] | Compound NOT metabolized | Compound NOT metabolized | Compound metabolized | Compound metabolized | Compound metabolized | Compound metabolized | Compound NOT metabolized | Compound metabolized | Compound NOT metabolized | Compound metabolized | Compound metabolized | Compound metabolized | Compound metabolized | Compound NOT metabolized | Compound metabolized | Compound NOT metabolized | Compound metabolized | Compound NOT metabolized | Compound NOT metabolized | Compound NOT metabolized |
